Assay results taken from US4235905A, “1H-Pyrimido[4,5-c]-1,2-diazepines” (Burroughs Wellcome Co., priority 1977, dated 1980).
Where two headings read alike, the source gives them in different places.

Columns and labels:
LD50 in mice = conditions: mouse, in vivo, ip
Procedure: By standard techniques the LD50 values of the following compounds of formula (I) were determined in mice.

[1] = system: Eimeria tenella (Weybridge); experiment: Anti-coccidial activity in vitro, chick embryo liver cell cultures with Eimeria tenella sporozites; format: cell-based; conditions: for Activity, Alone: compound alone; for Activity, With DV/SQX: with sulphaquinoxaline (0.01 μg/ml) and diaveridine (0.031 μg/ml); for minimal effective concentration: Eimeria tenella, read-out: minimum active anti-coccidial amount
Procedure: The anti-coccidial activity of compounds of formula (III) alone and in combination with a mixture of diaveridine (DV) and sulphaquinoxaline (SQX) in vitro was tested according to the following procedure.
Using standard test procedures employing primary explant cultures of chick embryo liver cells and a suspension of Eimeria tenella (Weybridge) sporozites the activity of the compounds was determined at various concentrations. In the above test, each test compound was used either alone or in combination with sulphaquinoxaline (0.01 μg/ml) and diaveridine (0.031 μg/ml). It should be noted that the minimum active anti-coccidial amounts of sulphaquinoxaline and diaveridine are 0.024 μg/ml and 0.098 μg/ml respectively.
The following results were obtained wherein activity is expressed as follows: […]

Staphylococcus aureus = experiment: Antibacterial activity of trimethoprim and sulphamethoxazole alone and in combination with compounds of formula (II) (activity index); format: cell-based; conditions: compound of formula (II) at 50 μg/ml, viable counts after 24 hours incubation of 10^6 organisms per ml; for activity index, SMX: in combination with sulphamethoxazole (SMX); for activity index, TMP: in combination with trimethoprim (TMP)
Procedure: The antibacterial activity against Staphylococcus aureus of trimethoprim (TMP) and sulphamethoxazole (SMX) alone and in combination with compounds of formula (II) were compared.
The results shown in the table are expressed as an activity index which is: [formula] the effect of the compounds being measured by viable counts after 24 hours incubation of 10^6 organisms per ml.
In this test, the compounds of formula (II) were present at 50 μg/ml.
An activity index ≥2 is indicative of substantial potentiation: […]

[2] = system: Weybridge strain of Eimeria tenella; experiment: Anti-coccidial activity in vivo in chicks, caecal lesion score; conditions: compound 200 ppm in diet with DV 20 ppm and SQX 20 ppm, sixth day after infection, scale 0-3, dead = 4
Procedure: Compounds of formula (III) were tested for anti-coccidial activity in vivo in combination with diaveridine (DV) and sulphaquinoxaline (SQX), each at 20 ppm, according to the following procedure. Groups of five, one week old chicks were each injected orally with 6,000 sporulated o cysts of the Weybridge strain of Eimeria tenella. Drugs were administered in LD 5 chick mash deficient in Vitamin K, beginning on the day of infection and continuing for 7 days. On the sixth day after infection, caecal lesions of surviving chicks were scored on a scale of 0, 1, 2 or 3 and any dead chicks were scored as 4.

COC(=O)C1=NN(C)c2nc(N)[nH]c(=O)c2C(c2cc(OC)c(OC)c(OC)c2)=C1 [drawing 31]
LD50 (LD50 in mice): > 500 mg/kg

CN1N=C(c2ccccc2)C=C(c2ccccc2)c2c1nc(N)[nH]c2=O [Example 1, 8-Amino-3,5-diphenyl-1-methyl-1H-pyrimido{4,5-c}-1,2-diazepin-6(7H)-one]
Activity, Alone ([1]; concentration 25 μg/ml): 4 (1-25% parasite development) | Activity, With DV/SQX ([1]; concentration 25 μg/ml): 4 (1-25% parasite development)

COC(=O)C1=NN(C)c2nc(N)[nH]c(=O)c2C(c2cccc(O)c2)=C1 [Example 3, 8-Amino-3-carbomethoxy-5-(3-hydroxyphenyl)-1-methyl-1H-pyrimido{4,5-c}-1,2-diazepin-6(7H)-one]
activity index, SMX (Staphylococcus aureus): 2.7 | activity index, TMP (Staphylococcus aureus): 0.9

COC(=O)C1=NN(C)c2nc(N)[nH]c(=O)c2C(c2cc(OC)c(OC)c(OC)c2)=C1 [Example 6, 8-Amino-3-carbomethoxy-1-methyl-5-(3,4,5-trimethoxyphenyl)-1H-pyrimido{4,5-c}-1,2-diazepin-6(7H)-one]
Activity, Alone ([1]; concentration 1.56 μg/ml): 2 (51-75% parasite development) | Activity, Alone ([1]; concentration 6.25 μg/ml): 3 (26-50% parasite development) | Activity, Alone ([1]; concentration 25 μg/ml): 3 (26-50% parasite development) | Activity, Alone ([1]; concentration 100 μg/ml): 3 (26-50% parasite development) | Activity, With DV/SQX ([1]; concentration 1.56 μg/ml): 3 (26-50% parasite development) | Activity, With DV/SQX ([1]; concentration 6.25 μg/ml): 3 (26-50% parasite development) | Activity, With DV/SQX ([1]; concentration 25 μg/ml): 4 (1-25% parasite development) | Activity, With DV/SQX ([1]; concentration 100 μg/ml): 5 | Lesion score [2]: 0.6

CCOC(=O)C1=NN(C)c2nc(N)[nH]c(=O)c2C(c2ccccc2)=C1 [Example 5, 8-Amino-3-carbethoxy-1-methyl-5-phenyl-1H-pyrimido-{4,5-c}-1,2-diazepin-6(7H)-one]
activity index, SMX (Staphylococcus aureus): > 2.8 | activity index, TMP (Staphylococcus aureus): 2.0

Nc1ccc(S(=O)(=O)Nc2cnc3ccccc3n2)cc1 [sulphaquinoxaline, reference compound]
minimal effective concentration ([1]; in vitro, alone): 0.024 µg/mL

CC1=CC(C)=NN(C)c2nc(N)[nH]c(=O)c21 [Example 2, 8-Amino-1,3,5-trimethyl-1H-pyrimido{4,5-c}-1,2-diazepin-6(7H)-one]
LD50 (LD50 in mice): ~500 mg/kg

CCOC(=O)C1=NN(C)c2nc(N)[nH]c(=O)c2C(c2ccc(OC)cc2OC)=C1 [Example 7, 8-Amino-3-carbethoxy-1-methyl-5-(2,4-dimethoxyphenyl)1H-pyrimido{4,5-c}-1,2-diazepin-6(7H)-one]
Activity, Alone ([1]; concentration 1.56 μg/ml): 0 (95-100% parasite development) | Activity, Alone ([1]; concentration 6.25 μg/ml): 2 (51-75% parasite development) | Activity, Alone ([1]; concentration 25 μg/ml): 4 (1-25% parasite development) | Activity, Alone ([1]; concentration 100 μg/ml): 4 (1-25% parasite development) | Activity, With DV/SQX ([1]; concentration 1.56 μg/ml): 2 (51-75% parasite development) | Activity, With DV/SQX ([1]; concentration 6.25 μg/ml): 3 (26-50% parasite development) | Activity, With DV/SQX ([1]; concentration 25 μg/ml): 5 | Activity, With DV/SQX ([1]; concentration 100 μg/ml): 5 | Lesion score [2]: 1.2

COc1ccc(Cc2cnc(N)nc2N)cc1OC [diaveridine, reference compound]
minimal effective concentration [1]: 0.098 µg/mL
